Laboratory results: patent US9580432B2, “Fused pyrimidine compound or salt thereof” (TAIHO PHARMACEUTICAL CO., LTD., priority 2013, dated 2017)

molecular target: purified recombinant human BTK protein (Homo sapiens (Human), UniProt Q06187); test: Measurement of BTK inhibitory activity (in vitro); format: biochemical; settings: FL-PEPTIDE 2 substrate 1 μM, ATP 45 μM, 40 minutes at 25° C.
Excerpt: With regard to the setting of the conditions for a method for measuring the inhibitory activity of a compound against BTK kinase activity in vitro, it is described in the consumable reagent supplies price list for LabChip (registered trademark) series of PerkinElmer, Inc. that FL-PEPTIDE 2 corresponds to a substrate peptide for the measurement of BTK kinase activity. Therefore, FL-PEPTIDE 2 was used as a substrate. The purified recombinant human BTK protein used in the test was purchased from Carna Biosciences, Inc.
With regard to the measurement of the inhibitory activity of the compounds, firstly, the compounds of the present invention were diluted stepwise with dimethyl sulfoxide (DMSO). Subsequently, BTK protein, a substrate peptide (final concentration was 1 μM), magnesium chloride (final concentration was 10 mM), ATP (final concentration was 45 μM), and a DMSO solution of the compounds of the present invention (final concentration of DMSO was 5%) were added to a buffer solution for kinase reaction (20 mM HEPES (pH 7.5), 2 mM dithiotheitol, 0.01% Triton X-100), and after the solution was incubated for 40 minutes at 25° C., a kinase reaction was carried out. The reaction was terminated by adding EDTA thereto in order to obtain a final concentration of 30 mM. Finally, a substrate peptide that was not phosphorylated (S) and a phosphorylated peptide (P) were separated and detected by microchannel capillary electrophoresis using a LabChip EZ Reader II (PerkinElmer, Inc.).

purified recombinant human BTK protein, sequence (Q06187 whole entry): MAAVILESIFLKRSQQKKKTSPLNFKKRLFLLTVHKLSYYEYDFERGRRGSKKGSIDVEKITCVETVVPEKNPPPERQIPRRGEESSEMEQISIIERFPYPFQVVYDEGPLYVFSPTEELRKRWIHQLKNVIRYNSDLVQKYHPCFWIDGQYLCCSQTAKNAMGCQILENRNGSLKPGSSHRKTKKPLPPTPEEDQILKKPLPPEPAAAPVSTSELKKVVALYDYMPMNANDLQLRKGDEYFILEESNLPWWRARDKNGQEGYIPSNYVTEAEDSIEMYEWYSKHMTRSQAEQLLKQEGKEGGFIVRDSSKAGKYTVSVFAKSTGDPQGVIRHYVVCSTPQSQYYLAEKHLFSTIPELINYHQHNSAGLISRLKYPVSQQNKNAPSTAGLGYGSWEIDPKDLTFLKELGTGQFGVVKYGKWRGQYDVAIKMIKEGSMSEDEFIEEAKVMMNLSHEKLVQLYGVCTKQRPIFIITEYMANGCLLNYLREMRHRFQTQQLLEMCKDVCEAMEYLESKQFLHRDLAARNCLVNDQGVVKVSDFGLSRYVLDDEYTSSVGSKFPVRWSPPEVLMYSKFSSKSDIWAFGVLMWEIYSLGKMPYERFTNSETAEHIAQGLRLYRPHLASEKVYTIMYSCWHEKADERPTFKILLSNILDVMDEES

IC50	Compound
0.443 nM	C=CC(=O)N1CCC[C@@H](n2nc(C(=O)Nc3nc4cc(-c5cccs5)ccc4o3)c3c(N)ncnc32)C1 [Example 3, (R)-1-(1-acryloylpiperidin-3-yl)-4-amino-N-(5-(thiophen-2-yl)benzo[d]oxazol-2-yl)-1H-pyrazolo[3,4-d]pyrimidine-3-carboxamide]
1.67 nM	C=CC(=O)N1CC[C@@H](n2nc(C(=O)Nc3nc4cc(-c5ccc(Cl)cc5)ccc4o3)c3c(N)ncnc32)C1 [Example 31, (R)-1-(1-acryloylpyrrolidin-3-yl)-4-amino-N-(5-(4-chlorophenyl)benzo[d]oxazol-2-yl)-1H-pyrazolo[3,4-d]pyrimidine-3-carboxamide]
0.887 nM	CCN(C)C/C=C/C(=O)N1CC[C@@H](n2nc(C(=O)Nc3nc4cc(Cl)ccc4o3)c3c(N)ncnc32)C1 [Example 33, (R,E)-4-amino-N-(5-chlorobenzo[d]oxazol-2-yl)-1-(1-(4-(ethyl(methyl)amino)but-2-enoyl)pyrrolidin-3-yl)-1H-pyrazolo[3,4-d]pyrimidine-3-carboxamide]
0.546 nM	C=CC(=O)N1CC[C@@H](n2nc(C(=O)Nc3nc4cc(C(F)(F)F)ccc4o3)c3c(N)ncnc32)C1 [Example 43, (R)-1-(1-acryloylpyrrolidin-3-yl)-4-amino-N-(5-(trifluoromethyl)benzo[d]oxazol-2-yl)-1H-pyrazolo[3,4-d]pyrimidine-3-carboxamide]
0.799 nM	C=CC(=O)N1CC[C@@H](n2cc(C(=O)Nc3nc4cc(-c5ccccc5)ccc4o3)c3c(N)ncnc32)C1 [Example 55, (R)-7-(1-acryloylpyrrolidin-3-yl)-4-amino-N-(5-phenylbenzo[d]oxazol-2-yl)-7H-pyrrolo[2,3-d]pyrimidine-5-carboxamide]
1.84 nM	CCN(CC)C/C=C/C(=O)N1CC[C@@H](n2cc(C(=O)Nc3nc4cc(-c5ccccc5)ccc4o3)c3c(N)ncnc32)C1 [Example 58, (R,E)-4-amino-N-(5-phenylbenzo[d]oxazol-2-yl)-7-(1-(4-(diethylamino)but-2-enoyl)pyrrolidin-3-yl) 7H-pyrrolo[2,3-d]pyrimidine-5-carboxamide]
79 nM	C=CC(=O)N1CC[C@H](n2nc(C(=O)Nc3nc4ccccc4o3)c3c(N)ncnc32)C1 [Example 65, (S)-1-(1-acryloylpyrrolidin-3-yl)-4-amino-N-(benzo[d]oxazol-2-yl)-1H-pyrazolo[3,4-d]pyrimidine-3-carboxamide]
31.4 nM	CC1=CC(C)=[N+]2C1=Cc1ccc(CCC(=O)NCCN3CCN(C/C=C/C(=O)N4CCC[C@@H](n5nc(C(=O)Nc6nc7ccccc7o6)c6c(N)ncnc65)C4)CC3)n1[B-]2(F)F [Example P-1, (R,E)-7-(3-((2-(4-(4-(3-(4-amino-3-(benzo[d]oxazol-2-ylcarbamoyl)-1H-pyrazolo[3,4-d]pyrimidin-1-yl)piperidin-1-yl)-4-oxobut-2-en-1-yl)piperazin-1-yl)ethyl)amino)-3-oxopropyl) 5,5-difluoro-1,3-dimethyl-5H-dipyrrolo[1,2-c:2′,1′-f][1,3,2]diazaborinin-4-ium-5-uide]

Compound	IC50
C=CC(=O)N1CCC[C@@H](n2nc(C(=O)Nc3nc4cc(Cl)ccc4o3)c3c(N)ncnc32)C1 [Example 1, (R)-1-(1-acryloylpiperidin-3-yl)-4-amino-N-(5-chlorobenzo[d]oxazol-2-yl)-1H-pyrazolo[3,4-d]pyrimidine-3-carboxamide]	0.415 nM
C=CC(=O)N1CCC[C@@H](n2nc(C(=O)Nc3nc4cccc(Cl)c4o3)c3c(N)ncnc32)C1 [Example 64, (R)-1-(1-acryloylpiperidin-3-yl)-4-amino-N-(7-chlorobenzo[d]oxazol-2-yl)-1H-pyrazolo[3,4-d]pyrimidine-3-carboxamide]	8.09 nM
C=CC(=O)N1CCC(n2nc(C(=O)Nc3nc4ccccc4o3)c3c(N)ncnc32)CC1 [Example 69, 1-(1-acryloylpiperidin-4-yl)-4-amino-N-(benzo[d]oxazol-2-yl)-1H-pyrazolo[3,4-d]pyrimidine-3-carboxamide]	162 nM
C=CC(=O)N1CC(n2nc(C(=O)Nc3nc4ccccc4o3)c3c(N)ncnc32)C1 [Example 74, 1-(1-acryloylazetidin-3-yl)-4-amino-N-(benzo[d]oxazol-2-yl)-1H-pyrazolo[3,4-d]pyrimidine-3-carboxamide]	21.4 nM
Nc1ncnc2c1c(C(=O)Nc1nc3ccccc3o1)nn2[C@@H]1CCCN(C(=O)/C=C/CN2CCN(CCNC(=O)CCCC[C@@H]3SC[C@@H]4NC(=O)N[C@@H]43)CC2)C1 [Example P-2, 4-amino-N-(benzo[d]oxazol-2-yl)-1-((R)-1-((E)-4-(4-(2-(5-((3aS,4S,6aR)-2-oxohexahydro-1H-thieno[3,4-d]imidazol-4-yl)pentanamido)ethyl)piperazin-1-yl)but-2-enoyl)piperidin-3-yl)-1H-pyrazolo[3,4-d]pyrimidine-3-carboxamide]	43.9 nM

test system: A431 cells / TMD8 cells; test: Proliferation inhibitory activity against cell lines expressing BTK and EGFR (in vitro), comparison of selectivity; format: cell-based, human; settings: ratio from GI50 (nM), 3 days culture, CELLTITER GLO
Excerpt: TMD8 cells, which are of a diffuse large B-cell lymphoma cell line expressing BTK, were suspended in RPMI1640 medium (manufactured by Life Technologies Corp.) containing 10% fetal bovine serum. A431 cells, which are of an EGFR-overexpressing, highly activated human epidermoid carcinoma cell line, were suspended in DMEM, high glucose medium (manufactured by Life Technologies Corp.) containing 10% fetal bovine serum. The cell suspensions were inoculated into each well of 384-well flat-bottomed microplates, and the cells were cultured for 1 day at 37° C. in an incubator containing 5% carbon dioxide gas. […] A DMSO solution of the test compounds was diluted with the medium used in the suspension of the each cells, and this was added to each of the wells of the cell culture plates such that the final concentration of DMSO would be 0.2%. The cells were further cultured for 3 days at 37° C. in an incubator containing 5% carbon dioxide gas. […] Proliferation inhibition ratio (%)=(C−T)/(C−C0)×100
T: Luminescence intensity of a well in which the test compound was added
C: Luminescence intensity of a well in which the test compound was not added
C0: Luminescence intensity of a well measured before the addition of the test compound
When a comparison is made between the cell proliferation inhibitory activity against A431 cells that depends on the EGFR proliferation signaling and the cell proliferation inhibitory activity against TMD8 cells that depends on the BTK proliferation signaling, the influence of the respective kinases at a cellular level is able to be evaluated. That is, when the “A431 cell proliferation inhibition ratio/TMD8 cell proliferation inhibition ratio” is calculated, it is contemplated that as the value of the ratio is larger, the selectivity to BTK over EGFR in the cells is higher.

Compound	A431 cell proliferation inhibition ratio/TMD8 cell proliferation inhibitio ratio
C=CC(=O)N1CCC[C@@H](n2nc(C(=O)Nc3nc4cc(Cl)ccc4o3)c3c(N)ncnc32)C1 [Example 1, (R)-1-(1-acryloylpiperidin-3-yl)-4-amino-N-(5-chlorobenzo[d]oxazol-2-yl)-1H-pyrazolo[3,4-d]pyrimidine-3-carboxamide]	1062.9
C=CC(=O)N1CCC[C@@H](n2nc(C(=O)Nc3nc4cc(OC)ccc4o3)c3c(N)ncnc32)C1 [Example 7, (R)-1-(1-acryloylpiperidin-3-yl)-4-amino-N-(5-methoxybenzo[d]oxazol-2-yl)-1H-pyrazolo[3,4-d]pyrimidine-3-carboxamide]	5440.9
C=CC(=O)N1CCC[C@@H](n2nc(C(=O)Nc3nc4cc(CCOC)ccc4o3)c3c(N)ncnc32)C1 [Example 8, (R)-1-(1-acryloylpiperidin-3-yl)-4-amino-N-(5-(2-methoxyethyl)benzo[d]oxazol-2-yl)-1H-pyrazolo[3,4-d]pyrimidine-3-carboxamide]	25303.8
C/C=C/C(=O)N1CCC[C@@H](n2nc(C(=O)Nc3nc4ccccc4o3)c3c(N)ncnc32)C1 [Example 14, (R,E)-4-amino-N-(benzo[d]oxazol-2-yl)-1-(1-(but-2-enoyl)piperidin-3-yl)-1H-pyrazolo[3,4-d]pyrimidine-3-carboxamide]	>1400.6
CN(C)C/C=C/C(=O)N1CCC[C@@H](n2nc(C(=O)Nc3nc4cc(-c5cccs5)ccc4o3)c3c(N)ncnc32)C1 [Example 21, (R,E)-4-amino-N-(5-(thiophen-2-yl)benzo[d]oxazol-2-yl)-1-(1-(4-(dimethylamino)but-2-enoyl)piperidin-3-yl)-1H-pyrazolo[3,4-d]pyrimidine-3-carboxamide]	4909.1
C=CC(=O)N1CC[C@@H](n2nc(C(=O)Nc3nc4ccccc4o3)c3c(N)ncnc32)C1 [Example 27, (R)-1-(1-acryloylpyrrolidin-3-yl)-4-amino-N-(benzo[d]oxazol-2-yl)-1H-pyrazolo[3,4-d]pyrimidine-3-carboxamide]	4155.9
C=CC(=O)N1CC[C@@H](n2nc(C(=O)Nc3nc4cc(OC)ccc4o3)c3c(N)ncnc32)C1 [Example 38, (R)-1-(1-acryloylpyrrolidin-3-yl)-4-amino-N-(5-methoxybenzo[d]oxazol-2-yl)-1H-pyrazolo[3,4-d]pyrimidine-3-carboxamide]	2868.1
C=CC(=O)N1CC[C@@H](n2nc(C(=O)Nc3nc4cc(-c5ccccc5)ccc4o3)c3c(N)ncnc32)C1 [Example 41, (R)-1-(1-acryloylpyrrolidin-3-yl)-4-amino-N-(5-phenylbenzo[d]oxazol-2-yl)-1H-pyrazolo[3,4-d]pyrimidine-3-carboxamide]	1667.7
C=CC(=O)N1CCC(n2nc(C(=O)Nc3nc4cc(Cl)ccc4o3)c3c(N)ncnc32)C1 (stereo not shown) [Example 84, 1-(1-acryloylpyrrolidin-3-yl)-4-amino-N-(5-chlorobenzo[d]oxazol-2-yl)-1H-pyrazolo[3,4-d]pyrimidine-3-carboxamide]	>7132.7
